The experiment has as its target T1, TRAP1 enzyme (Homo sapiens, UniProt Q12931).
T1 construct: 150 nM Trap1 enzyme was incubated with various concentrations of the test compound
T1 sequence (Q12931 60-704): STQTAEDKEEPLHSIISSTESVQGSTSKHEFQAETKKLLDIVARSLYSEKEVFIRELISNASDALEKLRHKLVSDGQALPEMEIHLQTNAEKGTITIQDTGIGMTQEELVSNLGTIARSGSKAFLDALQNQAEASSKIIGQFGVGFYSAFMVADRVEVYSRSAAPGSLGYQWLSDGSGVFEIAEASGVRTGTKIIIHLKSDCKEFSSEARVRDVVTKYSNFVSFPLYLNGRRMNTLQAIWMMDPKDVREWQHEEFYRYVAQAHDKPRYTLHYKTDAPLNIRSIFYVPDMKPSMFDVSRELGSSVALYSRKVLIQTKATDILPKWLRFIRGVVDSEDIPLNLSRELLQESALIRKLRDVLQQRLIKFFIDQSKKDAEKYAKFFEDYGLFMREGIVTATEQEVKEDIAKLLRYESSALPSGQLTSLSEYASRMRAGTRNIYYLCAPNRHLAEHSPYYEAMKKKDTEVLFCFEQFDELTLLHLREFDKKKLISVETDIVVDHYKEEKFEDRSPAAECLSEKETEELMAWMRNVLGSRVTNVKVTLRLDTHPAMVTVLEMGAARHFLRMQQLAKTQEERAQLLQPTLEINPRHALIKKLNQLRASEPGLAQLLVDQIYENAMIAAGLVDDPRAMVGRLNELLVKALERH
The experiment can be described thus: ADP Glo assay of TRAP1 ATPase activity. Conditions: for pEC50: concentration for half maximal activation, read-out: ADP GLO DRC: GeoMean EC50; for Emax: maximal percent activation, read-out: ADP GLO DRC: Mean Emax. The experiment is classed as biochemical. A digest of the protocol:
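Compound (0.79–100 μM) was preincubated 30 min at 37° C with 150 nM TRAP1 in 25 mM Pipes pH 7.5, 40 mM KCl, 0.05 mM MgCl2. Reaction started with 20 μM ATP, 60 min at 37° C. ADP measured by luminescence against a standard curve; activation fitted sigmoidally for EC50 and Emax.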

pEC50: −log10 of the molar value.

For `COc1ncc(NC(=O)c2csc(-c3ccccc3)n2)cc1S(=O)(=O)Nc1c(C#N)cnn1C` [compound 1911], the pEC50 (in general, −log10 of the EC50, conventionally taken in molar units) is 4.00 to 4.70 and the Emax (in general, the size of the effect at its maximum, as opposed to the concentration needed) lay in the range of 119 to 159%.

Take `COc1ncc(NC(=O)c2csc(-c3ccccc3)n2)cc1S(=O)(=O)Nc1nnn(Cc2ccccc2)n1` [compound 1912]: the pEC50 was 4.00 to 4.70 and the Emax lay within 200 to 300%.

For `COc1ncc(NC(=O)c2csc(-c3ccccc3)n2)cc1S(=O)(=O)Nc1ccc2nn[nH]c2c1` [compound 1926], the pEC50 is 4.00 to 4.70 and the Emax is 119 to 159%.

Turning to `COc1ncc(NC(=O)c2ccnc(Br)c2)cc1S(=O)(=O)Nc1c(C)cccc1C` [compound 1935, 1,2-bromo-N-(5-(N-(2,6-dimethylphenyl)sulfamoyl)-6-methoxypyridin-3-yl)isonicotinamide], the pEC50 was 4.00 to 4.70 and the Emax lay within 200 to 300%.

For `COc1ncc(NC(=O)c2coc(-c3ccc(F)cc3)n2)cc1S(=O)(=O)Nc1c(C)cc(F)cc1C` [compound 1937, N-(5-(N-(4-fluoro-2,6-dimethylphenyl)sulfamoyl)-6-methoxypyridin-3-yl)-2-(4-fluorophenyl) oxazole-4-carboxamide], the pEC50 was over 5.00 and the Emax lay within 119 to 159%.

Take `COc1ncc(NC(=O)c2ccnc(-c3cccnc3)c2)cc1S(=O)(=O)Nc1c(C)cccc1C` [compound 1940, N-(5-(N-(2,6-dimethylphenyl)sulfamoyl)-6-methoxypyridin-3-yl)-[2,3′-bipyridine]-4-carboxamide]: the pEC50 was 4.70 to 5.00 and the maximal effect (Emax) was over 300%.

For the compound `COc1ncc(NC(=O)c2coc(-c3ccccc3)n2)cc1S(=O)(=O)Nc1c(C)cccc1Cl` [compound 1941, N-(5-(N-(2-chloro-6-methylphenyl)sulfamoyl)-6-methoxypyridin-3-yl)-2-phenyloxazole-4-carboxamide], the pEC50 is over 5.00 and the Emax lay in the range of 160 to 199%.

As to `COc1ncc(NC(=O)c2cccc(-c3ccnn3C)c2)cc1S(=O)(=O)Nc1c(C)cccc1C` [compound 1942, N-(5-(N-(2,6-dimethylphenyl)sulfamoyl)-6-methoxypyridin-3-yl)-3-(1-methyl-1H-pyrazol-5-yl)benzamide], the negative logarithm of the EC50 (pEC50) was 4.70 to 5.00 and the Emax is over 300%.

`COc1ncc(NC(=O)c2csc3c2C2CCN3CC2)cc1S(=O)(=O)Nc1ccc(Cl)cc1` [compound 1944, N-(5-(N-(4-chlorophenyl)sulfamoyl)-6-methoxypyridin-3-yl)-5,6-dihydro-4H-4,7-ethanothieno[2,3-b]pyridine-3-carboxamide]: the negative logarithm of the EC50 (pEC50) is 4.70 to 5.00 and the Emax was 200 to 300%.

Turning to `COc1ncc(NC(=O)c2csc3c2C2CCN3CC2)cc1S(=O)(=O)Nc1c(C)cccc1C` [compound 1946, N-(5-(N-(2,6-dimethylphenyl)sulfamoyl)-6-methoxypyridin-3-yl)-5,6-dihydro-4H-4,7-ethanothieno[2,3-b]pyridine-3-carboxamide], the pEC50 is over 5.00 and the Emax lay within 160 to 199%.

For the compound `COc1ncc(NC(=O)c2csc3c2CN(C(=O)OC(C)(C)C)CC3)cc1S(=O)(=O)Nc1c(C)cccc1C` [compound 1949, tert-butyl 3-((5-(N-(2,6-dimethylphenyl)sulfamoyl)-6-methoxypyridin-3-yl)carbamoyl)-6,7-dihydrothieno[3,2-c]pyridine-5(4H)-carboxylate], the pEC50 is over 5.00 and the Emax was 200 to 300%.

Consider `COc1ncc(NC(=O)c2coc(-c3ccccc3)n2)cc1S(=O)(=O)Nc1ccc(F)cc1C` [compound 1950, N-(5-(N-(4-fluoro-2-methylphenyl)sulfamoyl)-6-methoxypyridin-3-yl)-2-phenyloxazole-4-carboxamide], for which the pEC50 was over 5.00 and the Emax is 119 to 159%.

For the compound `COc1ncc(NC(=O)c2csc(-c3ccccc3)n2)cc1S(=O)(=O)Nc1c(C)cccc1O` [compound 1953, N-(5-(N-(2-hydroxy-6-methylphenyl)sulfamoyl)-6-methoxypyridin-3-yl)-2-phenylthiazole-4-carboxamide], the pEC50 was 4.00 to 4.70 and the Emax is 119 to 159%.

As for `COc1ncc(NC(=O)c2csc(-c3ccccc3)n2)cc1S(=O)(=O)Nc1sccc1C` [compound 1954, N-(6-methoxy-5-(N-(3-methylthiophen-2-yl)sulfamoyl)pyridin-3-yl)-2-phenylthiazole-4-carboxamide], the pEC50 is 4.00 to 4.70 and the maximal response (Emax) was in the range of 119 to 159%.

Take `COc1ncc(NC(=O)c2csc3c2CN(C)CC3)cc1S(=O)(=O)Nc1c(C)cccc1C` [compound 1956, N-(5-(N-(2,6-dimethylphenyl)sulfamoyl)-6-methoxypyridin-3-yl)-5-methyl-4,5,6,7-tetrahydrothieno[3,2-c]pyridine-3-carboxamide]: the pEC50 was 4.00 to 4.70 and the maximal effect (Emax) fell in the range of 200 to 300%.

As for `COc1ncc(NC(=O)c2ncoc2C)cc1S(=O)(=O)Nc1ccc(Cl)cc1` [compound 1959, N-(5-(N-(4-chlorophenyl)sulfamoyl)-6-methoxypyridin-3-yl)-5-methyloxazole-4-carboxamide], the pEC50 is 4.70 to 5.00 and the maximal response (Emax) was 160 to 199%.

On to `COc1ncc(NC(=O)c2coc(-c3ccccc3)n2)cc1S(=O)(=O)Nc1c(Cl)cccc1C(F)(F)F` [compound 1962, N-(5-(N-(2-chloro-6-(trifluoromethyl)phenyl)sulfamoyl)-6-methoxypyridin-3-yl)-2-phenyloxazole-4-carboxamide], for which the negative-log EC50 (pEC50) is 4.00 to 4.70 and the Emax is 160 to 199%.

Turning to `COc1ncc(NC(=O)c2coc(-c3ccccc3)n2)cc1S(=O)(=O)Nc1c(C)cc(C#N)cc1C` [compound 1965, N-(5-(N-(4-cyano-2,6-dimethylphenyl)sulfamoyl)-6-methoxypyridin-3-yl)-2-phenyloxazole-4-carboxamide], the pEC50 is over 5.00 and the maximum response (Emax) lay within 119 to 159%.

For the compound `COc1ncc(NC(=O)c2coc(-c3ccccc3)n2)cc1S(=O)(=O)Nc1ncc(Cl)cc1C` [compound 1966, N-(5-(N-(5-chloro-3-methylpyridin-2-yl)sulfamoyl)-6-methoxypyridin-3-yl)-2-phenyloxazole-4-carboxamide], the pEC50 was 4.00 to 4.70 and the Emax lay in the range of 160 to 199%.

For `COc1ncc(NC(=O)c2csc(-c3ccccc3)n2)cc1S(=O)(=O)Nc1c(C(F)(F)F)cccc1C(F)(F)F` [compound 1970, N-(5-(N-(2,6-bis(trifluoromethyl)phenyl)sulfamoyl)-6-methoxypyridin-3-yl)-2-phenylthiazole-4-carboxamide], the pEC50 was 4.70 to 5.00 and the maximal response (Emax) fell in the range of 200 to 300%.

Consider `COc1ncc(NC(=O)c2csc3c2CNCC3)cc1S(=O)(=O)Nc1c(C)cccc1C` [compound 1972, N-(5-(N-(2,6-dimethylphenyl)sulfamoyl)-6-methoxypyridin-3-yl)-4,5,6,7-tetrahydrothieno[3,2-c]pyridine-3-carboxamide], for which the pEC50 is 4.00 to 4.70 and the Emax lay in the range of 160 to 199%.

For `COc1ncc(NC(=O)c2coc(-c3ccccc3)n2)cc1S(=O)(=O)Nc1ncc(Cl)cc1F` [compound 1977, N-(5-(N-(5-chloro-3-fluoropyridin-2-yl)sulfamoyl)-6-methoxypyridin-3-yl)-2-phenyloxazole-4-carboxamide], the pEC50 is 4.00 to 4.70 and the Emax was 200 to 300%.

Source of the values: patent US20230159509A1 (Amathus Therapeutics, Inc., priority 2020, published 2023).
